The values that follow come from PubChem BioAssay (NCI).

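1) Cells in 96-well plates. 2) Compound, 48 h, 5 concentrations. 3) Linear interpolation between surrounding doses. 4) Unreached endpoint = highest concentration. GI50 is the concentration that inhibits growth by half. TGI: concentration producing complete growth inhibition.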

Common to all, as to test: NCI-60 cell line screen, 48 h
Assay [1] deals with UACC-257 melanoma.
Assay [2] has as its system OVCAR-8 ovarian.
The test system of assay [3] is HCT-116 colon.
The test system of assay [4] is TK-10 renal.
Assay [5] deals with NCI-H460 lung.
The subject of assay [6] is SF-295 CNS.
The subject of assay [7] is MDA-MB-231 breast.
Assay [8] concerns MALME-3M melanoma.
Assay [9] deals with CCRF-CEM leukemia.
Assay [10] has as its system U251 CNS.

In the case of `COc1cc(NS(=O)(=O)c2ccc(-c3cnc(C4CC4)o3)cc2)ccc1F`, the GI50 was 2.43 µM in assay [1]; 0.745 µM in assay [2]; 0.29 µM in [3]; 7.88 µM in assay [4]; 0.447 µM in assay [5]; 0.205 µM in assay [6]. Also, the GI50 is 1.36 µM in assay [7], 0.56 µM in assay [8], 0.326 µM in assay [9] and 0.572 µM in assay [10]. Moreover, the TGI in assay [1] was 33.9 µM; in [2] it was 56.5 µM; in assay [3], 14.1 µM; in [4], 53.9 µM; in assay [5], 14.4 µM; in assay [6], 1.46 µM. Further, the TGI was 19.5 µM in assay [7], 33.9 µM in assay [8], greater than 100 µM in assay [9] and 18.1 µM in assay [10].

Turning to `Cc1ccc2c3c(c(=O)[nH]c2c1)C1(C(C#N)=C(N)O3)c2cc(Br)ccc2-c2ccc(Br)cc21`, the GI50 in assay [1] was 2.32 µM; in assay [2], 3.02 µM; in [3], 1.94 µM; in assay [4] it was 2.31 µM; in [5] it was 2.09 µM; in assay [6], 1.82 µM. The GI50 in assay [7] was 1.7 µM; in assay [8], 1.51 µM; in [9], 3.12 µM; in [10], 1.81 µM. In addition, the TGI amounted to 5.24 µM in assay [1]; 8.62 µM in [2]; 4.35 µM in assay [3]; 6.09 µM in assay [4]; 4.67 µM in assay [5]; 3.71 µM in assay [6]. In addition, the TGI in assay [7] is 3.6 µM; in assay [8] it was 3.15 µM; in assay [9] it was 15 µM; in assay [10], 3.5 µM.

Consider `COC(=O)c1c(C)[nH]c(/C=C2\N=C(c3ccc[nH]3)C=C2OC)c1C`, for which the GI50 is 0.339 µM in assay [1]; 0.229 µM in [2]; 0.0378 µM in assay [3]; 0.141 µM in assay [4]; 0.147 µM in [5]; 0.983 µM in assay [6]. For the same compound, the GI50 is 0.169 µM in assay [7], 0.525 µM in assay [8], 0.0501 µM in [9] and 0.117 µM in assay [10]. Further, the TGI in [1] is 1.52 µM; in assay [3] it was 1.2 µM; in assay [4] it was 4.03 µM; in assay [5], greater than 100 µM; in assay [6], 3.44 µM; in [7] it was 1.27 µM. Further, the results for the TGI in [8], in [9] and in assay [10] were 2.02 µM, greater than 100 µM and 2.49 µM, respectively.

Consider `COc1cc2c3c(n(C)c(=O)c2cc1OC)-c1cc2c(cc1/C3=C\CNCCCN)OCO2`, for which the GI50 is 0.907 µM in assay [1]; 0.13 µM in [2]; 0.107 µM in assay [3]; 0.981 µM in assay [4]; 0.75 µM in assay [5]; 1.08 µM in [6]. Also, the GI50 is 0.333 µM in assay [7], 0.144 µM in assay [8], 0.0239 µM in assay [9] and 0.0717 µM in assay [10]. Besides, the TGI in [1] came out at 2.76 µM; in assay [2], 1.05 µM; in assay [3] it was 4.19 µM; in assay [4] it was 7.47 µM; in assay [5] it was 12.9 µM; in [6], 15.9 µM. The TGI in assay [7] was found to be 2.01 µM; in assay [8] it was 0.591 µM; in [9] it was 0.15 µM; in assay [10], 1.58 µM.

On to `CCN(CC)CCCC(C)Nc1cnc(C(=O)Nc2cccc3ccc(OC)nc23)cn1` (centres undefined), for which the GI50 in [1] is 2.43 µM; in assay [2], 2.74 µM; in assay [3], 1.62 µM; in assay [4] it was 15.4 µM; in assay [5] it was 2.12 µM; in [6] it was 15 µM. Also, the GI50 in assay [7] was 1.73 µM; in [8], 1.75 µM; in assay [9], 2.74 µM; in [10], 1.81 µM. The TGI in assay [1] amounted to 5.98 µM; in assay [2], 8.41 µM; in assay [3], 3.44 µM; in [4] it was 29.7 µM; in assay [5], 4.66 µM; in assay [6] it was 29.9 µM. The TGI in assay [7] stood at 3.45 µM; in [8], 3.22 µM; in assay [9], 8.11 µM; in assay [10], 3.52 µM.

Consider `COc1ccc(OC)c(C(=O)c2oc3ccc(Br)cc3c2N)c1`, for which the GI50 was 0.392 µM in assay [1]; 0.576 µM in [2]; 0.346 µM in [3]; 1.74 µM in assay [4]; 0.375 µM in assay [5]; 0.286 µM in assay [6]. The GI50 in assay [7] was 0.847 µM; in assay [8], 0.339 µM; in [9] it was 0.332 µM; in [10], 0.397 µM. Moreover, the TGI in [1] was 21.8 µM; in assay [2], 97.9 µM; in [3], 13.9 µM; in assay [4], 87.7 µM; in assay [5] it was 12.4 µM; in assay [6] it was 2.61 µM. For the same compound, the TGI in assay [7] is 26.7 µM; in assay [8], 46.8 µM; in assay [9], 24.1 µM; in assay [10], 16.4 µM.

On to `Cc1ccc2[nH]c(C(=O)NN3C(=O)C(C)SC34CCCC(C)C4)c(-c3ccccc3)c2c1` (centres undefined), for which the GI50 was 66.8 µM in assay [1]; 34.5 µM in assay [2]; 75.7 µM in assay [3]; 89.4 µM in assay [4]; 83.3 µM in assay [5]; 68.5 µM in assay [6]. Further, the GI50 in assay [7] was greater than 100 µM; in assay [8], 69 µM; in assay [9] it was 74.1 µM; in [10], 48.8 µM. Besides, the TGI in assay [1], in [2], in assay [3], in [4], in [5] and in [6] was greater than 100 µM each time. Further, the TGI in assay [7], in assay [8], in [9] and in assay [10] was greater than 100 µM in each case.
